How the values were obtained:
[1] = target: T1, MMP-11 (stromelysin-3, mST3) (Mus musculus, UniProt Q02853); test: Ki determination with fluorogenic synthetic substrates, recombinant MMP-11; assay type: biochemical, murine; settings: for Ki: Tris/50 mM HCl buffer, pH 6.8, 10 mM CaCl2, 25° C., read-out: affinity constant Ki, MMP-11 mST3
T1 construct: made in house; host or cells: E. coli
T1 sequence (Q02853 102-492): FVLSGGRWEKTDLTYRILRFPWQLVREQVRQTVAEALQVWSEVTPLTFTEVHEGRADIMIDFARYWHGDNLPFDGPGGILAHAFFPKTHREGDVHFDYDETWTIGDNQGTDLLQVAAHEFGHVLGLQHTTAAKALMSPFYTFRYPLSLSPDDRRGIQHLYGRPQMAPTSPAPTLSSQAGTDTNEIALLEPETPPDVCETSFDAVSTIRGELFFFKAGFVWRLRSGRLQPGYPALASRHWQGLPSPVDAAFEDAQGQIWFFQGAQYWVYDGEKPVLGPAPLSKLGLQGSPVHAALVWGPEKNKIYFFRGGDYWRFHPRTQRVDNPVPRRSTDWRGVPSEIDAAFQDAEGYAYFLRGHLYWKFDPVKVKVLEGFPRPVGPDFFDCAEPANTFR
Experimental: (§1) The MMPs used were produced in recombinant form, in an E. coli expression system, and then purified using different types of chromatographies. Apart from stromelysin-3 (MMP-11), the MMPs produces correspond to human sequences. The Stromelysin-3 used in this study corresponds to the murine form.
(§2) The activity of each MMP was determined using two fluorogenic synthetic substrates. The cutoff of said substrates, which generates a fluorescent signal proportional to the quantity of split substrate, enables a precise determination of the kinetic parameters. The affinity constants Ki were calculated using the equation of Horowitz et al, Proc. Natl. Acad. Sci. USA, 1987, 84, p. 6654-6658 [14], accounting for the dependency of the percentage of inhibition measured experimentally according to the concentration of inhibitor, as a function of the enzyme and substrate concentration.
(§3) The experiments for conducted in a Tris/50 mM HCl buffer, pH 6.8, 10 mM CaCl2, 25° C.

MMP-2 (Gel-A) = target: T2, MMP-2 (Gel-A) (Homo sapiens, UniProt P08253); test: Ki determination with fluorogenic synthetic substrates, recombinant MMP-2; assay type: biochemical; settings: for Ki: Tris/50 mM HCl buffer, pH 6.8, 10 mM CaCl2, 25° C., read-out: affinity constant Ki, MMP-2 Gel-A
T2 construct: made in house; host or cells: E. coli
T2 sequence (P08253 110-660): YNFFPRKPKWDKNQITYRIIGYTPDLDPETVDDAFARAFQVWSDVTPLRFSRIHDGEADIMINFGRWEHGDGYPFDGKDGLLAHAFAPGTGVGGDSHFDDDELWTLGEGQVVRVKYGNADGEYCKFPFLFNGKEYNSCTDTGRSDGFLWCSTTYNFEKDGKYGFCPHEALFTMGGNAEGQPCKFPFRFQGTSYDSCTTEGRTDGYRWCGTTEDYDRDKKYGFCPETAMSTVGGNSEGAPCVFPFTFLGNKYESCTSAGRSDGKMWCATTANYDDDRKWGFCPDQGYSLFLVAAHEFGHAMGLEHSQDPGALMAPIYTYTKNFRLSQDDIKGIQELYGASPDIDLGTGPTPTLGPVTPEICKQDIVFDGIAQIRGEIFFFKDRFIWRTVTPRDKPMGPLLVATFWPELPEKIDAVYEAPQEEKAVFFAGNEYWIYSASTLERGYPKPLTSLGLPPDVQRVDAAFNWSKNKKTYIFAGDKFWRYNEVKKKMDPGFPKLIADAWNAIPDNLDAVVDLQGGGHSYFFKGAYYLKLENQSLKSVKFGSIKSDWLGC
Experimental: as §1, §2, §3

MMP-9 (Gel-B) = target: T3, MMP-9 (Gel-B) (Homo sapiens, UniProt P14780); test: Ki determination with fluorogenic synthetic substrates, recombinant MMP-9; assay type: biochemical; settings: for Ki: Tris/50 mM HCl buffer, pH 6.8, 10 mM CaCl2, 25° C., read-out: affinity constant Ki, MMP-9 Gel-B
T3 construct: made in house; host or cells: E. coli
T3 sequence (P14780 94-707): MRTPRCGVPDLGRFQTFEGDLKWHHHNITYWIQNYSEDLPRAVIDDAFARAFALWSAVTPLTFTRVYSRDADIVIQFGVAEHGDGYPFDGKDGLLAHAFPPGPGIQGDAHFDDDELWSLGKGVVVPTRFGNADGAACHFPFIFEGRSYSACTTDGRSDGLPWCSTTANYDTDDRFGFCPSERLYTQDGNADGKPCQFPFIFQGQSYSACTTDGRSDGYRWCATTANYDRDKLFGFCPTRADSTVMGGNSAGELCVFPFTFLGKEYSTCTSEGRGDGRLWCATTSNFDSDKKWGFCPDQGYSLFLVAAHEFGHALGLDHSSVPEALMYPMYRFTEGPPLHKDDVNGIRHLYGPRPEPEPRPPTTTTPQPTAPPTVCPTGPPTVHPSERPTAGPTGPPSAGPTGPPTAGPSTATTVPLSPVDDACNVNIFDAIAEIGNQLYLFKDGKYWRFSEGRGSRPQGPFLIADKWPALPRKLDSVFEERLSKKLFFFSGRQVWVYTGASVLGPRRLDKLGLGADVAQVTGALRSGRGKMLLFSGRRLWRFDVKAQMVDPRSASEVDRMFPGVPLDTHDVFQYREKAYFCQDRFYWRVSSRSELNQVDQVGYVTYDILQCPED
Experimental: as §1, §2, §3

MMP-14 (MT1-MMP) = target: T4, MMP-14 (MT1-MMP) (Homo sapiens, UniProt P50281); test: Ki determination with fluorogenic synthetic substrates, recombinant MMP-14; assay type: biochemical; settings: for Ki: Tris/50 mM HCl buffer, pH 6.8, 10 mM CaCl2, 25° C., read-out: affinity constant Ki, MMP-14 MT1-MMP
T4 construct: made in house; host or cells: E. coli
Experimental: as §1, §2, §3

MMP-1 (HFC) = target: T5, MMP-1 (HFC) (Homo sapiens, UniProt P03956); test: Ki determination with fluorogenic synthetic substrates, recombinant MMP-1; assay type: biochemical; settings: for inhibition at 1 µM: @ 1 μM inhibitor, read-out: percentage of inhibition, MMP-1
T5 construct: made in house; host or cells: E. coli
T5 sequence (P03956 100-469): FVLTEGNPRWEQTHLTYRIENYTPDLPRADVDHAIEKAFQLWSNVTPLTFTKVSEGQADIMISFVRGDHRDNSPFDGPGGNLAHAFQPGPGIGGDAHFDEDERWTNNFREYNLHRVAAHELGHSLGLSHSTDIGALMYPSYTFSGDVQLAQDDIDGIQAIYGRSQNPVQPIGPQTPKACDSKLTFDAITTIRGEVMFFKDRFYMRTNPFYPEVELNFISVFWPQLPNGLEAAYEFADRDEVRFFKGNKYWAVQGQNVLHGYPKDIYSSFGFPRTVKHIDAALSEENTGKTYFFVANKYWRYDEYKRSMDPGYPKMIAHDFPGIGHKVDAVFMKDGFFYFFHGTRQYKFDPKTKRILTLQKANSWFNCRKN
Experimental: as §1, §2, §3

MMP-7 (Matrilysin) = target: T6, MMP-7 (Matrilysin) (Homo sapiens, UniProt P09237); test: Ki determination with fluorogenic synthetic substrates, recombinant MMP-7; assay type: biochemical; settings: for percentage of inhibition, MMP-7: @ 50 mM inhibitor; for inhibition at 1 µM: @ 1 μM inhibitor, read-out: percentage of inhibition, MMP-7; for Ki: Tris/50 mM HCl buffer, pH 6.8, 10 mM CaCl2, 25° C., read-out: affinity constant Ki, MMP-7 Matrilysin
T6 construct: made in house; host or cells: E. coli
T6 sequence (P09237 95-267): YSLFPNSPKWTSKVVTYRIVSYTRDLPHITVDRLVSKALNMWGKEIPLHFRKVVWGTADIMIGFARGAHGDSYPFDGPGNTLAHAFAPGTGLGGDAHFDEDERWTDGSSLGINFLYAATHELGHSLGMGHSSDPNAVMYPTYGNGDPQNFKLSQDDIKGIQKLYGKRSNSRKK
Experimental: as §1, §2, §3

MMP-8 (HNC) = target: T7, MMP-8 (HNC) (Homo sapiens, UniProt P22894); test: Ki determination with fluorogenic synthetic substrates, recombinant MMP-8; assay type: biochemical; settings: for Ki: Tris/50 mM HCl buffer, pH 6.8, 10 mM CaCl2, 25° C., read-out: affinity constant Ki, MMP-8 HNC
T7 construct: made in house; host or cells: E. coli
T7 sequence (P22894 101-467): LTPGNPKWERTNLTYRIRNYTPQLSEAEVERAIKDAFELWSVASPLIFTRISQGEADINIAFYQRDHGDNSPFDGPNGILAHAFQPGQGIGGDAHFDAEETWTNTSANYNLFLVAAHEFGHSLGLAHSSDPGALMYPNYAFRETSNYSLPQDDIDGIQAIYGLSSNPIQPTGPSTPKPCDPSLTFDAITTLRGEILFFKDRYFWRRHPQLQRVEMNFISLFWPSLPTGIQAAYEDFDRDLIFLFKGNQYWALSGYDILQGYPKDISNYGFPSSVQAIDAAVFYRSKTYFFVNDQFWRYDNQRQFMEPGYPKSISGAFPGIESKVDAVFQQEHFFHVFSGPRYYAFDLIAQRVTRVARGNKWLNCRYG
Experimental: as §1, §2, §3

Compound | Ki [1] [µM] | Ki (MMP-2 (Gel-A)) [µM] | Ki (MMP-9 (Gel-B)) [µM] | Ki (MMP-14 (MT1-MMP)) [µM] | Ki (MMP-8 (HNC)) [µM] | inhibition at 1 µM (MMP-1 (HFC)) [%] | inhibition at 1 µM (MMP-7 (Matrilysin)) [%] | other results
COc1ccc(CSCC(CP(=O)(O)C(Cc2ccccc2)NC(=O)OCc2ccccc2)C(=O)NC(Cc2c[nH]c3ccccc23)C(N)=O)cc1 (centres unmarked) [Compound 18] | 0.002 | 0.006 | 0.003 | 0.022 | 0.0007 |  |  | inhibitory power on MMP-11, in words [1]: very powerful inhibitor; inhibitory power on MMP-2, in words (MMP-2 (Gel-A)): very powerful inhibitor; inhibitory power on MMP-9, in words (MMP-9 (Gel-B)): very powerful inhibitor; percentage of inhibition, MMP-1 (MMP-1 (HFC); @ 2 mM inhibitor): 13% @ 2 mM; percentage of inhibition, MMP-7 (MMP-7 (Matrilysin)): 84% @ 50 mM; inhibitory power on MMP-8, in words (MMP-8 (HNC)): very powerful inhibitor
NC(=O)[C@@H](Cc1c[nH]c2ccccc12)NC(=O)C(CCCc1ccccc1)CP(=O)(O)C(Cc1ccccc1)NC(=O)OCc1ccccc1 (some centres unmarked) [Compound 23] |  |  |  |  |  |  |  | percentage of inhibition, MMP-11 ([1]; @ 1 mM inhibitor): 1% @ 1 mM; percentage of inhibition, MMP-2 (MMP-2 (Gel-A); @ 2 mM inhibitor): 6% @ 2 mM; percentage of inhibition, MMP-9 (MMP-9 (Gel-B); @ 2 mM inhibitor): 14% @ 2 mM; percentage of inhibition, MMP-14 (MMP-14 (MT1-MMP); @ 10 mM inhibitor): 10% @ 10 mM; percentage of inhibition, MMP-1 (MMP-1 (HFC); @ 10 mM inhibitor): 3% @ 10 mM; percentage of inhibition, MMP-7 (MMP-7 (Matrilysin)): 18% @ 50 mM; percentage of inhibition, MMP-8 (MMP-8 (HNC); @ 1 mM inhibitor): 2% @ 1 mM
CC(=O)NC(Cc1ccccc1)P(=O)(O)CC(CCCc1ccccc1)C(=O)NC(Cc1c[nH]c2ccccc12)C(N)=O (centres unmarked) [Compound 25] | 0.02 | 0.026 | 0.035 | 0.09 | 0.0035 | 29 | 16 | 
NC(=O)C(Cc1c[nH]c2ccccc12)NC(=O)C(CCCc1ccccc1)CP(=O)(O)C(Cc1ccccc1)NC(=O)COCc1ccccc1 (centres unmarked) [Compound 26] | 0.005 | 0.008 | 0.01 | 0.04 | 0.0025 | 28 | 33 | 
NC(=O)C(Cc1c[nH]c2ccccc12)NC(=O)C(CCCc1ccccc1)CP(=O)(O)C(Cc1ccccc1)NC(=O)CNc1ccccc1 (centres unmarked) [Compound 27] | 0.015 | 0.017 | 0.006 | 0.073 | 0.0045 | 33 | 16 | 
NC(=O)C(Cc1c[nH]c2ccccc12)NC(=O)C(CCCc1ccccc1)CP(=O)(O)C(Cc1ccccc1)NC(=O)CNc1cccc(Cl)c1 (centres unmarked) [Compound 28] | 0.0038 | 0.009 | 0.006 | 0.045 | 0.004 | 63 | 25 | 
NC(=O)C(Cc1c[nH]c2ccccc12)NC(=O)C(CCCc1ccccc1)CP(=O)(O)C(Cc1ccccc1)NC(=O)CNc1cc(Cl)ccc1O (centres unmarked) [Compound 29] | 0.01 | 0.03 | 0.034 | 0.063 | 0.0075 | 55 | 48 | 
NC(=O)C(Cc1c[nH]c2ccccc12)NC(=O)C(CCCc1ccccc1)CP(=O)(O)C(Cc1ccccc1)NC(=O)c1cc2c(Cl)cc(Cl)cc2[nH]1 (centres unmarked) [Compound 31] | 0.0009 | 0.024 | 0.007 | 0.032 | 0.005 |  |  | inhibitory power on MMP-11, in words [1]: very powerful inhibitor; Ki (MMP-1 (HFC); Tris/50 mM HCl buffer, pH 6.8, 10 mM CaCl2, 25° C., read-out: affinity constant Ki, MMP-1 HFC): 0.036 µM; Ki (MMP-7 (Matrilysin)): 0.117 µM
NC(=O)C(Cc1c[nH]c2ccccc12)NC(=O)C(CCCc1ccccc1)CP(=O)(O)C(Cc1ccccc1)NC(=O)c1ccc2ccccc2n1 (centres unmarked) [Compound 32] | 0.0042 | 0.019 | 0.013 | 0.06 | 0.005 | 78 |  | Ki (MMP-7 (Matrilysin)): 0.37 µM
NC(=O)C(Cc1c[nH]c2ccccc12)NC(=O)C(CCCc1ccccc1)CP(=O)(O)C(Cc1ccccc1)NC(=O)c1cc2cc(Cl)cc(Cl)c2oc1=O (centres unmarked) [Compound 33] | 0.005 | 0.1 | 0.11 | 0.217 | 0.017 | 47 | 37 | 
CC(NC(=O)OCc1ccccc1)C(=O)NC(Cc1ccccc1)P(=O)(O)CC(CCCc1ccccc1)C(=O)NC(Cc1c[nH]c2ccccc12)C(N)=O (centres unmarked) [Compound 34] | 0.008 | 0.011 | 0.01 | 0.041 | 0.0055 | 24 | 18 | 
CC(C)CC(NC(=O)OCc1ccccc1)C(=O)NC(Cc1ccccc1)P(=O)(O)CC(CCCc1ccccc1)C(=O)NC(Cc1c[nH]c2ccccc12)C(N)=O (centres unmarked) [Compound 35] | 0.006 | 0.04 | 0.022 | 0.053 | 0.007 | 20 | 32 | 

Source: patent US6630501B1, “Phosphinic pseudo-peptides that may be used as matrix zinc metalloprotease inhibitors” (Commissariat a l'energie Atomique, priority 1999, dated 2003)
